Measurements from article PMC4198181, “Gold(I) Complexes of 9-Deazahypoxanthine as Selective Antitumor and Anti-Inflammatory Agents” (PLoS ONE, 2014).

How the values were obtained:
[1] = system: human cancer cell lines (MCF7, HOS, A549, G361, HeLa, A2780, A2780R, 22Rv1); assay: MTT in vitro cytotoxicity, summary over the panel of human cancer cell lines; type: cell-based; details: on the MCF7 and HOS cell lines
Experimental: In vitro cytotoxic activity was determined by the MTT assay in human breast adenocarcinoma (MCF7; ECACC no. 86012803), human osteosarcoma (HOS; ECACC no. 87070202), lung carcinoma (A549; ECACC no. 86012804), malignant melanoma (G361; ECACC no. 88030401), cervix epitheloid carcinoma (HeLa; ECACC no. 93021013), ovarian carcinoma (A2780; ECACC no. 93112519), cisplatin-resistant ovarian carcinoma (A2780R; ECACC no. 93112517) and prostate carcinoma (22Rv1; ECACC no 105092802) cancer cell lines, purchased from European Collection of Cell Cultures (ECACC). The cells were cultured according to the ECACC instructions and they were maintained at 37°C and 5% CO2 in a humidified incubator. The primary culture of human hepatocytes (HEP220, batch number HEP220819) was obtained from Biopredic International (France). The culture medium was Williams and HAM's F-12 (1∶1) supplemented with penicillin, streptomycin, ascorbic acid, linoleic acid, holo-transferin, ethanolamine, glucagon, insulin, dexamethasone, pyruvate, glucose, glutamine, amphotericin. The medium was enriched for plating with 2% foetal calf serum (v/v). The medium was exchanged for a serum-free medium the day after and the culture was stabilized for additional 24 h. Thereafter, the cells were ready for treatments. The cultures were maintained at 37°C and 5% CO2 in a humidified incubator. The cells were treated with complexes 1–5 (at the concentration levels of 0.01, 0.1, 1.0, 5.0, 25.0, and 50.0 µM), starting compounds e.g. HL1–5, AuCl, and cisplatin (applied up to 50 µM) for 24 h, using multi-well culture plates of 96 wells. […]
The cytotoxicity data were expressed as the percentage of viability, where 100% represented the treatments with vehicle (0.1% DMF or 0.1% DMSO). […] The IC50 values were calculated from viability curves. […] The significance of the differences between the results was assessed by the ANOVA analysis with p<0.05 considered to be significant (QC Expert 3.2, Statistical software, TriloByte Ltd., Pardubice, Czech Republic).

[2] = system: polymorphonuclear cells infiltration in hind paw tissue; assay: Ex vivo histological evaluation of hind paw tissue (HE staining, PMN infiltration); type: in vivo, Wistar-SPF rats; details: 6 h after carrageenan, Indomethacin 5 mg/kg
Experimental: The carrageenan-induced hind paw edema model was used for the determination of anti-inflammatory activity. Animals were i.p. pretreated with complexes 2, 4, and 5 (the dosages of the individual complexes were adjusted to contain the same amount of gold as in 10 mg/kg dose of Auranofin), Indomethacin (5 mg/kg), or 25% DMSO (v/v in water) 30 min prior to the injection of 1% λ-carrageenan solution (50 µL) into the plantar side of right hind paws of the rats. The paw volume was measured immediately after the carrageenan injection (this value was set-up as baseline value for the hind paw volume) and during the next 6 h after the administration of the edematogenic agent using a plethysmometer (model 7159, Ugo Basile, Varese, Italy). The degree of swelling was evaluated as a percentage of the change of the volume of the right hind paw after the carrageenan treatment from the baseline volume. A non-steroidal anti-inflammatory drug Indomethacin was used as a positive control and the obtained data were also compared with the previously reported profile of antiedematous activity for Auranofin [38]. After 6 h, the animals were sacrificed and the edematous feet were dissected, the tissue from the plantar parts was extracted, fixed and stained by a standard hematoxylin/eosin (HE) staining for cytological evaluation of polymorphonuclear cells infiltration.
To assess the tissue consequences connected with the reduction of inflammation caused by the tested compounds after the intraplantar injection of carrageenan, the histopathological observations were made on the tissue sections obtained from the laboratory animals after the plethysmometric experiments were finished. All animals were sacrificed by cervical dislocation, and immediately after that, the tissue samples were taken from the plantar area of hind paws. The histopathological changes in tissues, stained by the standard HE staining (see Figure 10), were evaluated by the presence of the inflammation infiltrate, which contained mainly neutrophils (polymorphonuclear cells - PMN).

[3] = Interactions with L-cysteine and reduced glutathione by ESI+ MS; type: physicochemical; details: 20 µM complex, 290 µM cysteine, 6 µM glutathione, methanol/water 1:1
Experimental: The interactions of selected gold(I) complexes 2 and 4, involving the isopropyloxy and benzyloxy substituent on C6 of 9-deazapurine, with the sulfur-containing biomolecules (i.e. L-cysteine and reduced glutathione) were studied by ESI+ mass spectrometry (ESI+ MS). The experiments were carried out using a Thermo Scientific LTQ Fleet Ion-Trap mass spectrometer, in positive ionization mode. The reactions of the representative complexes 2 and 4 were performed in methanol/water mixture (1∶1, v/v) containing the physiological concentrations of L-cysteine and glutathione (at the final concentrations of 290 µM, and 6 µM [63], respectively). The reference system consisted of the solutions of complexes (20 µM) in methanol/water mixture (1∶1, v/v). The flow injection analysis (FIA) method was utilized to introduce the reaction system (5 µL spikes) into the mass spectrometer and pure acetonitrile was used as a mobile phase. The ESI-source was set-up as follows: source voltage (5 kV), the vaporizer temperature (160°C), the capillary temperature (250°C), the sheath gas flow (30 L/min), and auxiliary gas flow rate (10 L/min). The system was calibrated as stated in the manufactured specifications and no further tuning was needed.

Row | SMILES | times more efficient than cisplatin [1] | PMN (neutrophil) infiltrate in hind paw tissue sections [2] | time within which interaction intermediates with cysteine/glutathione were detected (N-ligand exchange) [3] [h]
1 | CC(C)Oc1ncnc2cc[n]([Au])c12.c1ccc(P(c2ccccc2)c2ccccc2)cc1 [complex 2, [Au(L2)(PPh3)]] | at least 20 times | mainly scarce and diffuse | ≤ 1
2 | [Au][n]1ccc2ncnc(OCCc3ccccc3)c21.c1ccc(P(c2ccccc2)c2ccccc2)cc1 [complex 5] |  | massive presence of PMN cells | 
